Counter-ions that a name gives are not always drawn. Like-named read-outs stand apart in the source and are kept apart here.
Columns and labels:
SUDHL5 [1] = experiment: Induction of caspase-3/7 activity (Assay 4), SUDHL5; assay type: cell-based; conditions: SUDHL5 cells
Procedure, shortened: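 DLBCL cells treated with compounds for 3 hours at 37° C. Caspase-3/7 activity measured by Caspase-Glo 3/7 luminescence, with medium-only background subtracted.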

SUDHL10 [2] = experiment: Induction of caspase-3/7 activity (Assay 4), SUDHL10; assay type: cell-based; conditions: SUDHL10 cells
Procedure, shortened: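 SUDHL10 DLBCL cells treated with compounds for 3 hours at 37 °C in a humidified incubator. Caspase-3/7 activity read with Caspase-Glo 3/7 luminescent reagent. Medium-only background subtracted from all values.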

SUDHL5 [3] = experiment: Antiproliferation assay 7, SUDHL5; assay type: cell-based; conditions: SUDHL5 cells, CellTiter-Glo, read-out: Antiproli SUDHL5 IC50 (median)
Procedure, shortened: (§1)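 Anti-proliferative effect is determined from CellTiter-Glo signal after a 72-hour incubation at 37° C, with a time-zero reference plate measured in parallel.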

MV-4-11 = experiment: Antiproliferation assay 7, MV-4-11; assay type: cell-based; conditions: MV-4-11 cells, CellTiter-Glo, read-out: Antiproli MV-4-11 IC50 median
Procedure, shortened: as §1

AMO-1 = experiment: Antiproliferation assay 7, AMO-1; assay type: cell-based; conditions: AMO-1 cells, CellTiter-Glo, read-out: Antiproli AMO-1 IC50 median
Procedure, shortened: as §1

HMC-1-8 = experiment: Antiproliferation assay 7, HMC-1-8; assay type: cell-based; conditions: HMC-1-8 cells, CellTiter-Glo, read-out: Antiproli HMC-1-8 IC50 median
Procedure, shortened: as §1

SK-BR-3 = experiment: Antiproliferation assay 7, SK-BR-3; assay type: cell-based; conditions: Homo sapiens; SK-BR-3 cells, 72 hours, CellTiter-Glo; read-out: Antiproli SK-BR-3 IC50 median
Experimental: (§2) Assessment of the Anti-Proliferative Effect of Compounds in Different Cell Lines
(§3) The impact of compounds on the proliferation of different cell lines was assessed using the CellTiter-Glo® Luminescent Cell Viability reagent from Promega (G7573).
(§4) In parallel, cells were plated in a reference (day 0) plate for time zero determination.
(§5) Rim wells were excluded. The cells were incubated for 72 hours in a humidified incubator at 37° C. The day 0 plate was measured by adding 30 μL/well of CTG solution (CellTiter-Glo® Luminescent Cell Viability reagent, Promega G7573) to time zero wells in the reference plate followed by a 10 minutes incubation and luminescence reading at 0.1 ms. using the PHERAstar FS microplate reader (BMG Labtech).
(§6) After 72 hours incubation, the treated plates were measured in the same way as the day 0 plate mentioned above.

SUDHL5 [4] = experiment: Induction of cytotoxicity (Assay 6), SUDHL5
Experimental: (§7) Assay 6 Induction of Cytotoxicity Upon Treatment of Cells with Selected Compounds
(§8) Therefore, cytotoxicity assays were run in parallel in SUDHL5 and SUDHL10 cells.
(§9) The different cell lines were plated in culture medium (RPMI 1640 [GIBCO #22400-089]supplemented with 10% Fetal Bovine Serum) at a density of 3,300 cells in 30 μL/well in a sterile, solid black, flat bottom, polystyrene, TC-treated 384-well microplate (Corning #3571) using Multidrop Combi Reagent Dispenser. As a control, medium without cells was also added to the plate. Cells were incubated in a humidified incubator at 37° C. overnight. […] Rim wells were excluded. The cells were incubated for 5 hours in a humidified incubator at 37° C. After this incubation, 30 μL of CellTiter-Glo® Luminescent Cell Viability reagent (Promega, G7573) was added to each well using the Multidrop Combi Reagent Dispenser, followed by 15 minutes incubation on a shaker at room temperature. Finally, luminescence was read at 0.1 ms, with a gain of 3000 using the PHERAstar FS microplate reader (BMG Labtech).

SUDHL10 [5] = experiment: Induction of cytotoxicity (Assay 6), SUDHL10
Experimental: as §7, §8, §9

MCL-1 [6] = target: T1, MCL-1 (Homo sapiens (Human), UniProt Q07820, K194A/K197A/R201A); experiment: Protein-protein interaction assay MCL-1/Noxa BH3 peptide (MCL-1 Assay, TR-FRET); assay type: binding; conditions: read-out: MCL-1 Assay IC50 (median)
T1 sequence (Q07820 whole entry K194A/K197A/R201A, looked up): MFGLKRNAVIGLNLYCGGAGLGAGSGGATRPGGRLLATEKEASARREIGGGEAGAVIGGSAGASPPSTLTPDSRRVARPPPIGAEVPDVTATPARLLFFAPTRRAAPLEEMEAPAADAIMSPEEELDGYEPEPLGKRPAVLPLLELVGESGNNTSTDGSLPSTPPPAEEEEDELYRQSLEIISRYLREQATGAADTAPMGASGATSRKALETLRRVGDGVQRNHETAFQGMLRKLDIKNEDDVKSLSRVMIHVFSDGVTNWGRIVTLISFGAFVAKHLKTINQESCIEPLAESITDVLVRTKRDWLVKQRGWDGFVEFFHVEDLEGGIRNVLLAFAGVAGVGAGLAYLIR

MCL-1 [7] = target: T1, MCL-1; experiment: Protein-compound interaction assay (SPR assay 8); assay type: binding; conditions: immobilized MBP-MCL-1, 25° C.; for Kd: read-out: KD (geo mean)
From the text: Assay 8 Protein-Compound Interaction Assay (SPR Assay)
The ability of the compounds described in this invention to bind to MCL-1 may be determined using surface plasmon resonance (SPR). This allows for the quantification of binding in terms of the equilibrium dissociation constant (KD [M]), as well as association and dissociation rate constants (kon [1/M 1/s] and koff [1/s], respectively). The measurements may be performed using Biacore® T200 or Biacore® S200 instruments (GE Healthcare).
MBP-MCL-1 was diluted in 1×PBS-P+ (GE Healthcare) and injected on the activated chip surface. Subsequently, a solution of 1 M ethanolamine-HCl (GE Healthcare) was injected to block unreacted groups, resulting in approximately 400-2500 response units (RU) of immobilized protein. A reference surface was generated by treatment with NHS-EDC and ethanolamine-HCl.
The double-referenced sensorgrams were fit to a simple reversible Langmuir 1:1 reaction mechanism as implemented in the Biacore® T200 and S200 evaluation software (T200 evaluation software version 2.0 and S200 evaluation software version 1.0, GE Healthcare).

SUDHL10 [8] = experiment: Antiproliferation assay 7, SUDHL10; assay type: cell-based; conditions: Homo sapiens, SU-DHL10, 72 h, SUDHL10 cells, CellTiter-Glo, read-out: Antiproli SUDHL10 IC50 (median)
Experimental: as §2, §3, §4, §5, §6

[9] = Homo sapiens, SU-DHL-5, 3 h, Caspase-Glo 3/7, read-out: Caspase SUDHL5 EC50 (median)
[10] = Homo sapiens, SU-DHL10, 3 h, Caspase-Glo 3/7, read-out: Caspase SUDHL10 EC50 (median)
[11] = Homo sapiens, SU-DHL-5, 5 h, read-out: Cytotox SUDHL5 IC50 (median), SUDHL5 cells, 5 hours, CellTiter-Glo
[12] = Homo sapiens, SU-DHL10, 5 h, read-out: Cytotox SUDHL10 IC50 (median), SUDHL10 cells, 5 hours, CellTiter-Glo
[13] = 3 hours, Caspase-Glo 3/7, read-out: Caspase SUDHL5 EC50 (median)
[14] = 3 hours, Caspase-Glo 3/7, read-out: Caspase SUDHL10 EC50 (median)
[15] = read-out: Cytotox SUDHL5 IC50 (median), SUDHL5 cells, 5 hours, CellTiter-Glo
[16] = read-out: Cytotox SUDHL10 IC50 (median), SUDHL10 cells, 5 hours, CellTiter-Glo

Row | SMILES | EC50 (SUDHL5 [1]; [9]) [µM] | IC50 (SUDHL5 [3]; Homo sapiens, SU-DHL-5, 72 h) [µM] | IC50 (SK-BR-3) [µM] | IC50 (MCL-1 [6]) [µM] | EC50 (SUDHL5 [1]; [13]) [µM] | EC50 (SUDHL10 [2]; [14]) [µM] | Kd (MCL-1 [7]) [µM] | IC50 (SUDHL5 [3]; 72 hours) [µM] | IC50 (AMO-1; Homo sapiens, AMO1, 72 h) [µM] | IC50 (HMC-1-8; 72 h) [µM] | IC50 (AMO-1; 72 hours) [µM] | IC50 (SUDHL5 [4]; [15]) [µM] | IC50 (SUDHL10 [5]; [16]) [µM] | IC50 (HMC-1-8; 72 hours) [µM] | other results
1 | Cc1c2c(nn1C)CN(C)CCCCn1c(C(=O)O)c(CCCOc3cccc4ccccc34)c3ccc(Cl)c-2c31 (racemic) [Example 11, (rac)-4-chloro-2,3,14-trimethyl-7-[3-(naphthalen-1-yloxy)propyl]-10,11,12,13,14,15-hexahydro-2H-pyrazolo[3′,4′:8,9][1,6]diazacycloundecino[10,11,1-hi]indole-8-carboxylic Acid] | 0.14 | 0.3 | 1.48 | – | – | – | – | – | 0.728 | 4.19 | – | – | – | – | EC50 (SUDHL10 [2]; [10]): 0.26 µM; IC50 (MV-4-11; Homo sapiens, MV4-11, 72 h): 0.442 µM; IC50 (SUDHL5 [4]; [11]): 0.18 µM; IC50 (SUDHL10 [5]; [12]): 0.37 µM
2 | Cc1c2c(nn1C)CN(C)CCCCn1c(C(=O)O)c(CCCOc3cccc4cc(F)ccc34)c3ccc(Cl)c-2c31 (single isomer, unassigned; enantiomer 1) [Example 31, (+)-4-chloro-7-{3-[(6-fluoronaphthalen-1-yl)oxy]propyl}-2,3,14-trimethyl-10,11,12,13,14,15-hexahydro-2H-pyrazolo[3′,4′:8,9][1,6]diazacycloundecino[10,11,1-hi]indole-8-carboxylic acid-N-ethylethanamine Salt (Enantiomer 1)] | – | – | – | 0.00071 | 0.055 | 0.065 | 0.00043 | 0.053 | – | – | 0.174 | 0.053 | 0.082 | 1.92 | IC50 (MV-4-11; 72 hours): 0.275 µM
3 | Cc1c2c(nn1CCCN1CCN(C)CC1)COCCCCn1c(C(=O)O)c(CCCOc3cccc4ccccc34)c3ccc(Cl)c-2c31 (single isomer, unassigned; enantiomer 1) [Example 49, (+)-4-chloro-3-methyl-2-[3-(4-methylpiperazin-1-yl)propyl]-7-{3-[(naphthalen-1-yl)oxy]propyl}-2,10,11,12,13,15-hexahydropyrazolo[4′,3′:9,10][1,6]oxazacycloundecino[8,7,6-hi]indole-8-carboxylic Acid (Enantiomer 1)] | – | – | – | 0.00075 | 0.52 | 0.45 | 0.0017 | 0.48 | – | – | 1.34 | 0.66 | 0.62 | 3.06 | –
4 | Cc1c2c(nn1C)COCC1CC1Cn1c(C(=O)O)c(CCCOc3cccc4ccccc34)c3ccc(Cl)c-2c31 (single isomer, unassigned; stereoisomer 1) [Example 65, (9aS,10aR or 9aR, 10aS)-3-chloro-4,5-dimethyl-14-{3-[(naphthalen-1-yl)oxy]propyl}-5,7,9a, 10,10a, 11-hexahydro-9H-cyclopropa[3,4]pyrazolo[4′,3′:9,10][1,6]oxazacycloundecino-[8,7,6-hi]indole-13-carboxylic Acid—Stereoisomer 1] | 0.41 | – | – | 0.00092 | – | 0.57 | 0.0036 | – | 1.42 | – | – | 0.41 | 0.4 | 7.58 | –

Now from value to molecule, other results behind:

Row | EC50 (SUDHL5 [1]; [9]) [µM] | IC50 (SUDHL5 [3]; Homo sapiens, SU-DHL-5, 72 h) [µM] | IC50 (SK-BR-3) [µM] | IC50 (MCL-1 [6]) [µM] | EC50 (SUDHL5 [1]; [13]) [µM] | EC50 (SUDHL10 [2]; [14]) [µM] | Kd (MCL-1 [7]) [µM] | IC50 (SUDHL5 [3]; 72 hours) [µM] | SMILES | IC50 (AMO-1; Homo sapiens, AMO1, 72 h) [µM] | IC50 (HMC-1-8; 72 h) [µM] | IC50 (AMO-1; 72 hours) [µM] | IC50 (SUDHL5 [4]; [15]) [µM] | IC50 (SUDHL10 [5]; [16]) [µM] | IC50 (HMC-1-8; 72 hours) [µM] | other results
5 | 0.14 | 0.28 | 0.894 | – | – | – | – | – | CCc1c2c(nn1C)CN(C)CCCCn1c(C(=O)O)c(CCCOc3cccc4ccccc34)c3ccc(Cl)c-2c31 (racemic) [Example 22, (rac)-4-chloro-3-ethyl-2,14-dimethyl-7-[3-(naphthalen-1-yloxy)propyl]-10,11,12,13,14,15-hexahydro-2H-pyrazolo[3′,4′:8,9][1,6]diazacycloundecino[10,11,1-hi]indole-8-carboxylic Acid] | 0.659 | – | – | – | – | – | EC50 (SUDHL10 [2]; [10]): 0.27 µM; IC50 (MV-4-11; Homo sapiens, MV4-11, 72 h): 0.692 µM; IC50 (SUDHL5 [4]; [11]): 0.16 µM; IC50 (SUDHL10 [5]; [12]): 0.4 µM
6 | – | 1.2 | – | 0.00096 | 0.7 | 1.9 | 0.011 | – | Cc1c2c(nn1C)N(C)CCCCCn1c(C(=O)O)c(CCCOc3cccc4ccccc34)c3ccc(Cl)c-2c31 (single isomer, unassigned) [Example 72, (+)-4-chloro-2,3,15-trimethyl-7-{3-[(naphthalen-1-yl)oxy]propyl}-10,11,12,13,14,15-hexahydro-2H-pyrazolo[4′,3′:4,5][1,6]diazacycloundecino[3,2,1-hi]indole-8-carboxylic acid] | – | 19 | 1.7 | 0.88 | 1.6 | – | koff (MCL-1 [7]; read-out: koff (geo mean)): 0.016 s⁻¹; kon (MCL-1 [7]; read-out: kon (geo mean)): 1.4e+06 M⁻¹ s⁻¹
7 | – | – | 2.52 | – | 0.14 | – | – | 0.22 | CCc1c2c(nn1C)COCCCCn1c(C(=O)O)c(CCCOc3cccc4ccccc34)c3ccc(Cl)c-2c31 (single isomer, unassigned; enantiomer 1) [Example 20, 4-chloro-3-ethyl-2-methyl-7-[3-(naphthalen-1-yloxy)propyl]-2,10,11,12,13,15-hexahydropyrazolo[4′,3′:9,10][1,6]oxazacycloundecino[8,7,6-hi]indole-8-carboxylic Acid (Enantiomer 1)] | 0.874 | 2.47 | – | 0.17 | – | – | IC50 (SUDHL10 [8]): 0.45 µM; IC50 (MV-4-11; 72 hours): 0.907 µM

From patent US11447504B2, “Macrocyclic chlorine substituted indole derivatives” (Bayer Aktiengesellschaft, priority 2017, dated 2022)
